In patent US20260373156A1, “CANCER TREATMENTS USING MTA-COOPERATIVE PRMT5 INHIBITORS” (AMGEN INC., priority 2022, published 2026):
“And” between values parts separate entries of the source, which are not always exact repeats. Equal entries are not always repeated. Where two headings read alike, the source gives them in different places.

How the values were obtained:
MiaPaCa2 PDAC xenografts = tested on: MiaPaCa2 PDAC xenografts; parameters: species or system Female NOD/SCID mice; settings: mouse, in vivo
Protocol: FIG. 6A: Mice were implanted with LU99 (NSCLC CDX) tumors, FIG. 6B: LU5268 (NSCLC PDX) tumors. FIG. 6C: MiaPaCa2 (PDAC CDX) tumors. Vehicle, Compound G, and sotorasib were dosed as indicated. Data represent mean±SD, n=10 for each group.
10 Female NOD/SCID mice were implanted with LU99 NSCLC, LU5268 NSCLC or MisPaCa2 PDAC tumor xenografts. Mean tumor volumes for each grouping were between 100-200 mm^3. Mice were allocated to the four different study groups by tumor volume and dosing was initiated with Vehicle, Compound G (100 mg/kg), sotorasib (100 mg/kg) orally once daily or a combination of Compound G (100 mg/kg) with sotorasib (100 mg/kg). Plotted data represents the TGI (tumor growth inhibition), n=10 for each group.

H1650 cells [1] = assay type: cell-based; settings: 8640 min, 0.44 µM
Protocol: (§1) A MTAP-null NSCLC cancer cell line (H1650) was treated with the combination of Compound G and osimertinib for 6 days. Compound G was performed at a 1.9-fold dilution series and the combination partner was performed at 1.2 to 1.7 fold dilution series to create an 8×10 dose matrix including DMSO-only controls. Cell viability was measured by the CellTiter-Glo Luminescence assay. Raw luminescent values were converted to fraction affected (Fa) with the following equation: […]
(§2) Synergy analysis was performed using the CalcuSyn software to determine CI scores based on the drug concentrations used and corresponding Fa values.

H1650 cells [2] = assay type: cell-based
Protocol: as §1, with “erlotinib” for “osimertinib”
as §2

LU99 NSCLC xenografts [3] = settings: mouse, in vivo
LU99 NSCLC xenografts [4] = settings: mouse, in vivo; remark: listed apart in the source
LU5268 NSCLC xenografts = settings: mouse, in vivo
PSN1 cells = assay: CellTiter-Glo viability and CalcuSyn synergy, PRMT5 inhibitor + KIF18A, 6 days; settings: psn1 cells, 8640 min, 0.0767 µM
MIAPACA2T2 cells [5] = assay: as above
HCC1395 cells = assay: CellTiter-Glo viability and CalcuSyn synergy, PRMT5 inhibitor + olaparib, 6 days; settings: hcc1395 cells, 8640 min, 0.7673 µM
MIAPACA2T2 cells [6] = assay: CellTiter-Glo viability and CalcuSyn synergy, PRMT5 inhibitor + sotorasib, 6 days; settings: miapaca2t2 cells, 8640 min, 0.4374 µM
LU99 cells = assay: as above
A549 cells [7] = assay: CellTiter-Glo viability and CalcuSyn synergy, PRMT5 inhibitor + trametinib, 6 days
MIAPACA2T2 cells [8] = assay: as above
H292 cells = assay: CellTiter-Glo viability and CalcuSyn synergy, PRMT5 inhibitor + palbociclib, 6 days; settings: h292 cells, 8640 min, 0.1212 µM
A549 cells [9] = assay: as above; settings: a549 cells, 8640 min, 0.437382 µM
A549 cells [10] = assay: CellTiter-Glo viability and CalcuSyn synergy, PRMT5 inhibitor + KRAS G12X inhibitor, 6 days; settings: a549 cells, 8640 min, 0.4374 µM

For `Nc1nc2cnc(C(=O)N3CCOC[C@@H]3c3ccc(C(F)(F)F)cc3)cc2c2c1COC2` [Compound G], the tumor growth inhibition (MiaPaCa2 PDAC xenografts) was “significantly inhibits tumor growth”, the “Combination Fa” value (H1650 cells [1]) was 0.74 and 0.73 and 0.69 and 0.67 and 0.66 and 0.88 and 0.76 and the “Computed CI value” (H1650 cells [2]) was 0.40 and 0.29 and 0.34 and 0.35 and 0.52 and 0.48. For the same molecule, the “Combination Fa” value (H1650 cells [2]; h1650 cells, 8640 min, 0.23 µM) was 0.73 and 0.67 and 0.64 and 0.59 and 0.79 and 0.75, the anti-tumor activity (LU99 NSCLC xenografts [3]) was “significant anti-tumor activity versus either single agent alone” and the tumor growth inhibition (LU99 NSCLC xenografts [4]) was “significantly inhibits tumor growth”. For the same molecule, the tumor growth inhibition (LU5268 NSCLC xenografts) was “significantly inhibits tumor growth”, the “Combination Fa” value (PSN1 cells) was 0.858 and 0.868 and 0.837 and 0.811 and 0.781 and 0.923 and 0.86 and the “Computed CI value” (MIAPACA2T2 cells [5]) was 0.561 and 0.6 and 0.594 and 0.774 and 0.68 and 1.044 and 0.802. The “Combination Fa” value (MIAPACA2T2 cells [5]; miapaca2t2 cells, 8640 min, 0.437381 µM) was 0.7856 and 0.6938 and 0.6123 and 0.4815 and 0.4538 and 0.85 and 0.8122, the “Combination Fa” value (HCC1395 cells) was 0.6464 and 0.5971 and 0.5852 and 0.5488 and 0.55 and 0.7334 and 0.6661 and the “Combination Fa” value (MIAPACA2T2 cells [6]) was 0.818 and 0.785 and 0.712 and 0.633 and 0.519 and 0.829 and 0.84. For the same molecule, the “Computed CI value” (LU99 cells) was 0.276 and 0.234 and 0.289 and 0.249 and 0.281 and 0.424 and 0.294, the “Combination Fa” value (LU99 cells; lu99 cells, 8640 min, 0.1458 µM) was 0.817 and 0.821 and 0.794 and 0.804 and 0.787 and 0.825 and the “Computed CI value” (A549 cells [7]) was 0.276 and 0.365 and 0.349 and 0.48 and 0.512 and 0.43 and 0.384. The “Combination Fa” value (A549 cells [7]; a549 cells, 8640 min, 0.4374 µM) was 0.8494 and 0.7817 and 0.7499 and 0.6788 and 0.6495 and 0.894 and 0.8631, the “Computed CI value” (MIAPACA2T2 cells [8]) was 0.579 and 0.774 and 0.806 and 0.84 and 0.868 and 0.784 and 0.557 and the “Combination Fa” value (MIAPACA2T2 cells [8]; miapaca2t2 cells, 8640 min, 0.83102 µM) was 0.792 and 0.69 and 0.63 and 0.583 and 0.551 and 0.868 and 0.85. For the same molecule, the “Combination Fa” value (H292 cells) was 0.8154 and 0.7885 and 0.7925 and 0.7748 and 0.7116 and 0.8564 and 0.824, the “Combination Fa” value (A549 cells [9]) was 0.717 and 0.713 and 0.732 and 0.683 and 0.682 and 0.86 and 0.735 and the “Combination Fa” value (A549 cells [10]) was 0.8549 and 0.7807 and 0.755 and 0.7181 and 0.6897 and 0.833 and 0.8551.
